Laboratory results: patent US20250295790A1, “LECTIN-TARGETING CONJUGATES” (Helmholtz-Zentrum für Infektionsforschung GmbH, priority 2021, published 2025)
Where “and” joins values, the source holds several entries; their conditions need not be identical. Equal entries are not always repeated. Entries after “also recorded” stand apart in the source; their conditions may differ.

How the values were obtained:
[1] = Plasma protein binding assay (RED), human plasma; type: in vitro ADME; settings: human blood plasma
Experimental: Plasma protein binding was assessed using the rapid equilibrium device (RED) system from ThermoFisher. […] Dialysis buffer and plasma samples were added to the respective chambers according the manufacturer's protocol. The RED plate was sealed with a tape and incubated at 37° C. for 2 hours at 800 rpm on an Eppendorf MixMate® vortex-mixer. Then samples were withdrawn from the respective chambers. To 25 μl of each dialysis sample, 25 μl of plasma and to 25 μl of plasma sample, 25 l of dialysis buffer was added. […] Samples were incubated for 30 min on ice. Then samples were centrifuged at 4° C. at 2270 ref for 10 min. Supernatants were transferred to Greiner V-bottom 96-well plates and sealed with a tape. Then samples were subjected to HPLC-MS/MS analysis as described in the section ‘HPLC-MS/MS analysis’. The percentage of bound compound was calculated as follows: […]
Cell samples as well as plasma stability, plasma protein binding and metabolic stability samples were analysed using an Agilent 1290 Infinity II coupled to an AB Sciex 6500plus mass spec-trometer. LC conditions were as follows: column: Agilent Zorbax Eclipse Plus C18, 50×2.1 mm, 1.8 m; temperature: 30° C.; injection volume: 5 l per sample; flow rate: 700 l/min. Solvents: A: water+0.1% formic acid; solvent B: 95% acetonitrile/5% H2O+0.1% formic acid. […]

P. aeruginosa PA14 = test: Antibiotic susceptibility (MIC assay, broth microdilution); type: cell-based, Pseudomonas aeruginosa PA14
Experimental: Bacterial strains were streaked on LB-agar plates (1% agar) from glycerol stocks and incubated at 37° C. overnight. Colonies were picked from plate and dispersed in fresh MiGler-Hinton broth II (MHB II) to yield an OD600 of 0.08-0.13. This dispersion was diluted 1:100 in fresh MHB II, which was then used for the assay to achieve a final inoculum of 5×10^5 CFU/mL. 50 μL inoculum was mixed with 50 μL of the serial dilution in the corresponding well of the 96-well plate.
The different matrices were prepared under sterile conditions: (i) 5 mL human plasma and 1 mL sterile filtrate from an P. aeruginosa PA14 overnight culture in LB were mixed with 4 mL PBS; (ii) 1 mL sterile filtrate from an P. aeruginosa PA14 overnight culture was diluted in 9 mL PBS; (iii) PBS only and (iv) 5 mL human plasma and 1 mL LB were mixed with 4 mL PBS. 6 L of each compound dilution series was diluted in 115 L matrix (˜-1:20 dilution) in a 96-well format at time point T=−3 h or T=−10 min.
The plates prepared at T=−3 h were sealed with gas-permeable foil and incubated at 37° C. in a humid incubator. The other plates were kept at room temperature. At T=0 h, 50 µL of each well was mixed with 50 μL incoculum (as described above) in double-concentrated MHBII in a sterile 96-well plate.
The plates were sealed with gas-permeable foil and incubated at 37° C. for 18-20 h in a humid incubator. Growth inhibition was assessed by visual inspection and given MIC values are the lowest concentration of antibiotic at which there was no visible growth.

[2] = Prodrug activation assay in human blood plasma spiked with P. aeruginosa PA14 culture supernatant; type: in vitro ADME, Pseudomonas aeruginosa PA14; settings: 50% human blood plasma spiked with 10% P. aeruginosa culture supernatant, within 3 h
Experimental: In the prodrug activation assay, the bacterial strain Pseudomonas aeruginosa PA14 wt (DSM 19882) was used. The strain was obtained from the German Collection of Microorganisms and Cell Cultures (DSMZ).
P. aeruginosa PA14 was streaked on LB-agar plates (1% agar) from glycerol stocks and incubated at 37° C. overnight. 2-5 colonies were picked and dispersed in 10 mL LB (10 g/L trypton, 10 g/L NaCl, 5 g/L yeast extracts). This dispersion was incubated overnight at 37° C., 180 rpm under high humidity. The culture was centrifuged (4000 ref, room temperature, 10 min) and the supernatant was filtered (0.22 m pore size). […]
A 1 mM solution of the studied compound was prepared in PBS (150 mM NaCl, 2.6 mM KCl, 1.4 mM KH2PO4, 10 mM Na2HPO4, pH 7.4) with 20% DMSO. 50 μL of this solution was diluted in 950 μL matrix or human plasma (spiked with 10% LB) on ice. After brief vortex, 100 μL were immediately treated with 100 μL ice-cold MeCN (spiked with […] diphenhydramine as internal standard). The rest of the solution was incubated at 37° C. and 500 rpm in an eppendorf thermomixer. At various time points (30, 60, 120, 180 min), 100 L sample were taken and treated as described above. […] The AUC of the parent drug and its cleavage products and the internal standard was quantified using Compass QuantAnalysis quantification software. The relative AUC was calculated by AUC (compound)/AUC(ISTD). Procaine was used as a positive control as it readily degrades in human plasma.

[3] = Matrix 1: PBS, pre-incubation 3 h
[4] = Matrix 1: PBS, pre-incubation <10 min
[5] = Matrix 2: 50% human blood plasma + 10% P. aeruginosa culture supernatant in PBS, pre-incubation 3 h
[6] = Matrix 2: 50% human blood plasma + 10% P. aeruginosa culture supernatant in PBS, pre-incubation <10 min
[7] = Matrix 3: 10% P. aeruginosa culture supernatant in PBS, pre-incubation 3 h
[8] = Matrix 3: 10% P. aeruginosa culture supernatant in PBS, pre-incubation <10 min
[9] = Matrix 4: 50% human blood plasma + 10% LB in PBS, pre-incubation 3 h
[10] = Matrix 4: 50% human blood plasma + 10% LB in PBS, pre-incubation <10 min

Structure (SMILES) | plasma protein binding human [1] | MIC (P. aeruginosa PA14; [3]) [µM] | MIC (P. aeruginosa PA14; [4]) [µM] | MIC (P. aeruginosa PA14; [5]) [µM] | MIC (P. aeruginosa PA14; [6]) [µM] | MIC (P. aeruginosa PA14; [7]) [µM] | MIC (P. aeruginosa PA14; [8]) [µM] | MIC (P. aeruginosa PA14; [9]) [µM] | MIC (P. aeruginosa PA14; [10]) [µM] | release of antibiotic cargo [2]
CC(C)C[C@H](NC(=O)CNC(=O)[C@H](C)NC(=O)c1ccc(S[C@@H]2O[C@H](CO)[C@H](O)[C@H](O)[C@H]2O)cc1)C(=O)N[C@@H](C)C(=O)N[C@H]1CCN(c2cc3c(cc2F)c(=O)c(C(=O)O)cn3C2CC2)C1 [Compound 36] | 97% and 97.2 ± 4.8% | >25 | >25 | 0.1 | 0.195 to 0.39 | 0.195 to 3.13 | 0.78 to 3.13 | 0.78 to 6.25 | ≥25 | release their antibiotic cargo; also recorded: released a significant amount of their antibiotic cargo; also recorded: efficiently released their antibiotic cargo
CC(C)CC(NC(=O)CNC(=O)C(C)NC(=O)c1ccc(S(=O)(=O)NCC2OC(C)C(O)C(O)C2O)cc1)C(=O)NC(C)C(=O)NC1CCN(c2cc3c(cc2F)c(=O)c(C(=O)O)cn3C2CC2)C1 (centres unmarked) [Compound 37] | 51% and 51.1 ± 13.3% | >25 | >25 | 0.1 to 0.195 | 0.78 to 1.56 | 0.39 to 3.13 | 1.56 to 12.5 | 0.78 to 6.25 | ≥25 | release their antibiotic cargo; also recorded: released a significant amount of their antibiotic cargo; also recorded: efficiently released their antibiotic cargo
